Measured values from paper PMC4450297, “Screening Active Compounds from Garcinia Species Native to China Reveals Novel Compounds Targeting the STAT/JAK Signaling Pathway” (BioMed Research International, 2015).

What was measured:
[1] = system: STAT3 activation in multiple cancer cell lines; design: method as in PMID 21490133; settings: cited from earlier work
SW1353 = assay: Cell proliferation assay (CellTiter-Glo); format: cell-based; settings: Homo sapiens, SW1353 cells, 72 h
Method: (§1) All cells were obtained from the cell bank of the American Type Culture Collection (ATCC) and cultured in the supplier's recommended media supplemented with 10% FBS. The cell panel screen was measured using the CellTiter-Glo assay (Promega, Madison, WI) following a standard protocol. Briefly, cancer cells were seeded in 96-well plates and cultured overnight at 37°C with or without 5% CO2 in an incubator. Each compound was dissolved with limited DMSO and diluted to a certain concentration with culture medium and then added to the corresponding well of the cell plate. The final concentration of compound was 20 μM. The control cells (without treatment) received the same amount of DMSO and were incubated under the same conditions. After 72 h cultivation, 100 μL of the CellTiter-Glo reagent was added directly to each well for 10-minute incubation. The plate was then read on a FlexStation 3 microplate luminometer (Molecular Devices, USA) to monitor the luminescence signal generated by the luciferase-catalyzed reaction of luciferin and ATP. The percent of growth inhibition was calculated using the following formula: (untreated cells − treated cells)/(untreated cells − background without cells) ∗ 100.
(§2) For proliferation assays, the CellTiter-Glo assay (Promega, Madison, WI) was used to evaluate the proliferation of cancer cells treated with test compounds as described above. Each compound was dissolved in limited DMSO and diluted to various concentrations with culture medium and then added to the corresponding wells. A dose-response curve was plotted, and the IC50 was calculated using XLfit software.

A549 = assay: Cell proliferation assay (CellTiter-Glo); format: cell-based; settings: Homo sapiens, A549 cells, 72 h
Method: as §1, §2

CHP212 = assay: Cell proliferation assay (CellTiter-Glo); format: cell-based; settings: Homo sapiens, CHP-212, CHP212 cells, 72 h
Method: as §1, §2

NCI-H838 = assay: Cell proliferation assay (CellTiter-Glo); format: cell-based; settings: Homo sapiens, NCI-H838 cells, 72 h
Method: as §1, §2

SW954 = assay: Cell proliferation assay (CellTiter-Glo); format: cell-based; settings: Homo sapiens, SW 954, SW954 cells, 72 h
Method: as §1, §2

NCI-H1993 = assay: Cell proliferation assay (CellTiter-Glo); format: cell-based; settings: Homo sapiens, NCI-H1993 cells, 72 h
Method: as §1, §2

HuVec = assay: Cell proliferation assay (CellTiter-Glo), control cell line; format: cell-based; settings: Homo sapiens, 72 h
Method: as §1, §2

NCI-H1650 = assay: Cell proliferation assay (CellTiter-Glo); format: cell-based, human; settings: Homo sapiens, NCI-H1650, 72 h, NCI-H1650 cells, 20 μM to 0.009 μM in serial 3-fold dilutions
Method: as §1, §2

NCI-H1694 = assay: Cell panel screen (CellTiter-Glo); format: cell-based, human; settings: NCI-H1694 (Lung), 20 micromolar, 72 hrs
How it was run: (§3)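 Cells grown in 10% FBS medium were seeded, left overnight at 37°C, then exposed to compound at 20 μM final for 72 h. Luminescent ATP read-out; percent growth inhibition taken relative to DMSO-treated controls after subtraction of cell-free background.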

T47D = assay: Cell panel screen (CellTiter-Glo); format: cell-based, human; settings: T47D (Breast), 20 micromolar, 72 hrs
How it was run: as §3

BT-549 = assay: Cell panel screen (CellTiter-Glo); format: cell-based, human; settings: BT-549 (Breast), 20 micromolar, 72 hrs
How it was run: as §3

Panc 03.27 = assay: Cell panel screen (CellTiter-Glo); format: cell-based, human; settings: Panc 03.27 (Pancreas), 20 micromolar, 72 hrs
How it was run: as §3

HGC-27 = assay: Cell panel screen (CellTiter-Glo); format: cell-based, human; settings: HGC-27 (Stomach), 20 micromolar, 72 hrs
How it was run: as §3

NCI-H524 = assay: Cell panel screen (CellTiter-Glo); format: cell-based, human; settings: NCI-H524 (Lung), 20 micromolar, 72 hrs
How it was run: as §3

M059J = assay: Cell panel screen (CellTiter-Glo); format: cell-based, human; settings: M059J (Brain), 20 micromolar, 72 hrs
How it was run: as §3

NCI-H2405 = assay: Cell panel screen (CellTiter-Glo); format: cell-based, human; settings: NCI-H2405 (Lung), 20 micromolar, 72 hrs
How it was run: as §3

HPAF-II = assay: Cell panel screen (CellTiter-Glo); format: cell-based, human; settings: HPAF-II (Pancreas), 20 micromolar, 72 hrs
How it was run: as §3

HCC1395 = assay: Cell panel screen (CellTiter-Glo); format: cell-based, human; settings: HCC1395 (Breast), 20 micromolar, 72 hrs
How it was run: as §3

HCC1599 = assay: Cell panel screen (CellTiter-Glo); format: cell-based, human; settings: HCC1599 (Breast), 20 micromolar, 72 hrs
How it was run: as §3

Bel-7402 = assay: Cell panel screen (CellTiter-Glo); format: cell-based, human; settings: Bel-7402 (Liver), 20 micromolar, 72 hrs
How it was run: as §3

NCI-H1770 = assay: Cell panel screen (CellTiter-Glo); format: cell-based, human; settings: NCI-H1770 (Lung), 20 micromolar, 72 hrs
How it was run: as §3

A498 = assay: Cell panel screen (CellTiter-Glo); format: cell-based, human; settings: A498 (listed under Lung), 20 micromolar, 72 hrs
How it was run: as §3

J82 = assay: Cell panel screen (CellTiter-Glo); format: cell-based, human; settings: J82 (Urinary bladder), 20 micromolar, 72 hrs
How it was run: as §3

HCC1937 = assay: Cell panel screen (CellTiter-Glo); format: cell-based, human; settings: HCC1937 (Breast), 20 micromolar, 72 hrs
How it was run: as §3

HT-1197 = assay: Cell panel screen (CellTiter-Glo); format: cell-based, human; settings: HT-1197 (Urinary bladder), 20 micromolar, 72 hrs
How it was run: as §3

TCCSUP = assay: Cell panel screen (CellTiter-Glo); format: cell-based, human; settings: TCCSUP (Urinary bladder), 20 micromolar, 72 hrs
How it was run: as §3

RL95 = assay: Cell panel screen (CellTiter-Glo); format: cell-based, human; settings: RL95 (Uterus), 20 micromolar, 72 hrs
How it was run: as §3

A704 = assay: Cell panel screen (CellTiter-Glo); format: cell-based, human; settings: A704 (Kidney), 20 micromolar, 72 hrs
How it was run: as §3

ZR-75-30 = assay: Cell panel screen (CellTiter-Glo); format: cell-based, human; settings: ZR-75-30 (Breast), 20 micromolar, 72 hrs
How it was run: as §3

Colo 205 = assay: Cell panel screen (CellTiter-Glo); format: cell-based, human; settings: Colo 205, 20 micromolar, 72 hrs
How it was run: as §3

T98G = assay: Cell panel screen (CellTiter-Glo); format: cell-based, human; settings: T98G (Brain), 20 micromolar, 72 hrs
How it was run: as §3

CCF-STTG1 = assay: Cell panel screen (CellTiter-Glo); format: cell-based, human; settings: CCF-STTG1 (Brain), 20 micromolar, 72 hrs
How it was run: as §3

MSTO-211-H = assay: Cell panel screen (CellTiter-Glo); format: cell-based, human; settings: MSTO-211-H (Lung), 20 micromolar, 72 hrs
How it was run: as §3

NCI-H2347 = assay: Cell panel screen (CellTiter-Glo); format: cell-based, human; settings: NCI-H2347 (Lung), 20 micromolar, 72 hrs
How it was run: as §3

BT-474 = assay: Cell panel screen (CellTiter-Glo); format: cell-based, human; settings: BT-474 (Breast), 20 micromolar, 72 hrs
How it was run: as §3

HCC1569 = assay: Cell panel screen (CellTiter-Glo); format: cell-based, human; settings: HCC1569 (Breast), 20 micromolar, 72 hrs
How it was run: as §3

HEC-1-A = assay: Cell panel screen (CellTiter-Glo); format: cell-based, human; settings: HEC-1-A (Uterus), 20 micromolar, 72 hrs
How it was run: as §3

SW13 = assay: Cell panel screen (CellTiter-Glo); format: cell-based, human; settings: SW13 (Adrenal gland), 20 micromolar, 72 hrs
How it was run: as §3

NCI-H28 = assay: Cell panel screen (CellTiter-Glo); format: cell-based, human; settings: NCI-H28 (Lung), 20 micromolar, 72 hrs
How it was run: as §3

NCI-H1623 = assay: Cell panel screen (CellTiter-Glo); format: cell-based, human; settings: NCI-H1623 (Lung), 20 micromolar, 72 hrs
How it was run: as §3

CW-2 = assay: Cell panel screen (CellTiter-Glo); format: cell-based, human; settings: CW-2 (Colon), 20 micromolar, 72 hrs
How it was run: as §3

C3A = assay: Cell panel screen (CellTiter-Glo); format: cell-based, human; settings: C3A (Liver), 20 micromolar, 72 hrs
How it was run: as §3

ChaGo-K-1 = assay: Cell panel screen (CellTiter-Glo); format: cell-based, human; settings: ChaGo-K-1 (Lung), 20 micromolar, 72 hrs
How it was run: as §3

C8166 = assay: Cell panel screen (CellTiter-Glo); format: cell-based, human; settings: C8166 (Leukemia), 20 micromolar, 72 hrs
How it was run: as §3

CC(C)=CCC[C@]1(C)C=Cc2c(O)c3c(c(CC=C(C)C)c2O1)O[C@]12C(=C[C@@H]4C[C@H]1C(C)(C)O[C@@]2(C/C=C(/C)C(=O)O)C4=O)C3=O [gambogic acid]
STAT3 activation upon IL-6 treatment [1]: able to inhibit STAT3 activation

CN[C@@H]1C[C@H]2O[C@@](C)([C@@H]1OC)n1c3ccccc3c3c4c(c5c6ccccc6n2c5c31)C(=O)NC4 [Staurosporine, staurosporine, reference compound]
IC50 (SW1353): 4 ± 1 nM
IC50 (A549): 8 ± 2 nM
IC50 (CHP212): 4 ± 1 nM
IC50 (NCI-H838): 11 ± 4 nM
IC50 (SW954): 6 ± 1 nM
IC50 (NCI-H1993): 21 ± 7 nM
IC50 (HuVec): 4 ± 2 nM
IC50 (NCI-H1650): 22 ± 4 nM

CC(C)=CCC[C@@]1(C)C=Cc2c(O)c3c(c(CC=C(C)C)c2O1)O[C@]12C(=C[C@@H]4C[C@H]1C(C)(C)O[C@@]2(C/C=C(/C)C(=O)O)C4=O)C3=O [GB11]
Percent Inhibition (NCI-H1694): 99%
Percent Inhibition (T47D): 99%
Percent Inhibition (BT-549): 99%
Percent Inhibition (Panc 03.27): 99%
Percent Inhibition (HGC-27): 98%
Percent Inhibition (NCI-H524): 97%
Percent Inhibition (M059J): 98%
Percent Inhibition (NCI-H2405): 98%
Percent Inhibition (HPAF-II): 98%
Percent Inhibition (HCC1395): 98%
Percent Inhibition (HCC1599): 99%
Percent Inhibition (Bel-7402): 98%
Percent Inhibition (NCI-H1770): 98%
Percent Inhibition (A498): 98%
Percent Inhibition (J82): 98%
Percent Inhibition (HCC1937): 98%
Percent Inhibition (HT-1197): 98%
Percent Inhibition (TCCSUP): 99%
Percent Inhibition (RL95): 99%
Percent Inhibition (A704): 98%
Percent Inhibition (ZR-75-30): 99%
Percent Inhibition (Colo 205): 98%
Percent Inhibition (T98G): 99%
Percent Inhibition (CCF-STTG1): 98%
Percent Inhibition (MSTO-211-H): 98%
Percent Inhibition (NCI-H2347): 98%
Percent Inhibition (BT-474): 98%
Percent Inhibition (HCC1569): 99%
Percent Inhibition (HEC-1-A): 99%
Percent Inhibition (SW13): 98%
Percent Inhibition (NCI-H28): 99%
Percent Inhibition (NCI-H1623): 98%
Percent Inhibition (CW-2): 98%
Percent Inhibition (C3A): 98%
Percent Inhibition (ChaGo-K-1): 98%
Percent Inhibition (C8166): 99%
